{
  "source": "patent US20220096664A1",
  "about": "“STABILIZED FORMULATIONS CONTAINING IODINATED CONTRAST AGENTS AND CYCLODEXTRINS” (Verrow Pharmaceuticals, Inc., priority 2012, published 2022)",
  "key": {"[1]": {"format": "physicochemical", "description": "The lamps were switched on and the solutions irradiated for 18 to 24 hours for the ultraviolet (UV) lamps or 72 to 90 hours for the visible (VIS) light lamps. At the end of the selected irradiation time, the cuvettes were removed from the photolysis chamber and mixed by inversion 2-times. The caps were then removed and 40 microliter aliquots taken and diluted with 1 mL of an aqueous solution containing ˜0.9 mg/mL sodium thiosulfate. The thiosulfate solution converted any I2, IO3^−, and I3^− present in the solution tor such that total iodine species could be determined in one assay.\nThe diluted solutions were assayed by high pressure liquid chromatography (HPLC) using a 4.6×250 mm, C-18, 5 micron particle size, reversed phase column with detection at 280 nm for the contrast agent and 230 nm for the thiosulfate and the iodide ion (r). A mobile phase of 30:70 methanol:aqueous buffer (50 mM KH2PO4+7 mL/L 40% tetrabutyl ammonium hydroxide) at 0.75 mL/min was used for elution. Injection volume was 20 microliters. External standards were prepared containing each contrast agent, potassium iodide, and sodium thiosulfate solution and analyzed along with the irradiated samples. The results were reported as weight percentage iodide formed (mg iodide/mg contrast agent times 100).\nAqueous solutions were prepared containing 50 mM iodinated contrast agent, 10 mM tromethamine HCl buffer (TRIS), with and without sulfobutylether beta-cyclodextrin with an average degree of substitution-7 (SBE7-β-CD), or 2-hydroxypropyl beta-cyclodextrin with an average degree of substitution of ˜6.3 (HP6.3-β-CD) or ˜4.3 (HP4.3-β-CD). The iohexol solution was prepared by dissolving solid iohexol powder while the other solutions were prepared by diluting commercial formulated products and adding sufficient TRIS buffer to reach 10 mM. The pH of the solutions was adjusted to 7.4 with 0.1N hydrochloric acid.\nAliquots of the solutions were irradiated with visible light for 72 hours (0.52 million lux hours). Other aliquots were autoclaved for 20 minutes at 121° C., cooled to room temperature and then irradiated with ultraviolet light for 18 hours (119 watt hours/m2). The solutions were then processed, analyzed and reported as in Example 2, except that the chromatographic peaks of the contrast agents were evaluated at 300 nm for both samples and standards. […]\nAqueous formulations were prepared containing iodinated contrast agents at concentrations used commercially in medical procedures. Sulfobutylether-cyclodextrin, sodium salt, average degree of substitution ˜7 (SBE7CD) was added at varying agent:CD mole ratios. The formulations were placed in glass vials, sealed with rubber stoppers and aluminum crimps, and autoclaved at 121° C. for 20 minutes. Aliquots of the autoclaved solutions were exposed to UV light for 24 hours (159 watt hours/m^2 or VIS light for 72 hours (0.52 million lux hours) as in Example 2. The solutions were then processed, analyzed and reported as in Example 2, with the following two exceptions; 1) the chromatographic peaks of the contrast agents were evaluated at 300 nm for both samples and standards, and 2) only 20 microliter sample aliquots were taken and diluted for HPLC analysis due to the higher concentrations used in this study. Results of the study are presented in the table below along with the solution compositions."}, "[2]": {"format": "physicochemical", "settings": "for Iodide formed: 50 mM agent, 10 mM TRIS, pH 7.4, autoclaved then UV 18 h"}},
  "note": "Read-outs that look alike come from different tables or passages of the source.",
  "data": [
    {"smiles": "COCC(=O)Nc1c(I)c(C(=O)NCC(O)CO)c(I)c(C(=O)N(C)CC(O)CO)c1I", "note": "(centres unmarked) [Iopromide, iopromide]", "values": [
      {"measurement": "Iodide Formed, Autoclaved", "setting": "[1]; Iopromide 150 mg I/mL, pH 7.4, agent:SBE7CD 1:0.05", "result": 0.00289, "unit": "wt %"},
      {"measurement": "Iodide Formed, Autoclaved", "setting": "[1]; Iopromide 150 mg I/mL, pH 7.4, no SCD (1:0)", "result": 0.00383, "unit": "wt %"},
      {"measurement": "Iodide Formed, Autoclaved", "setting": "[1]; Iopromide 240 mg I/mL, pH 7.4, agent:SBE7CD 1:0.05", "result": 0.00217, "unit": "wt %"},
      {"measurement": "Iodide Formed, Autoclaved", "setting": "[1]; Iopromide 240 mg I/mL, pH 7.4, no SCD (1:0)", "result": 0.00204, "unit": "wt %"},
      {"measurement": "Iodide Formed, Autoclaved", "setting": "[1]; Iopromide 300 mg I/mL, pH 7.4, agent:SBE7CD 1:0.05", "result": 0.00118, "unit": "wt %"},
      {"measurement": "Iodide Formed, Autoclaved", "setting": "[1]; Iopromide 300 mg I/mL, pH 7.4, no SCD (1:0)", "result": 0.00145, "unit": "wt %"},
      {"measurement": "Iodide Formed, Autoclaved", "setting": "[1]; Iopromide 370 mg I/mL, pH 7.4, agent:SBE7CD 1:0.05", "result": 0.00072, "unit": "wt %"},
      {"measurement": "Iodide Formed, Autoclaved", "setting": "[1]; Iopromide 370 mg I/mL, pH 7.4, no SCD (1:0)", "result": 0.00111, "unit": "wt %"},
      {"measurement": "Iodide formed", "setting": "[2]; agent:SBE7-β-CD 1:0.1", "result": 0.330, "unit": "wt %"},
      {"measurement": "Iodide formed", "setting": "[2]; no SCD (1:0)", "result": 0.487, "unit": "wt %"},
      {"measurement": "Iodide Formed, UV", "setting": "[2]; Iopromide 150 mg I/mL, pH 7.4, agent:SBE7CD 1:0.05, autoclaved then UV 24 h", "result": 0.110, "unit": "wt %"},
      {"measurement": "Iodide Formed, VIS", "setting": "[2]; Iopromide 150 mg I/mL, pH 7.4, agent:SBE7CD 1:0.05, autoclaved then VIS 72 h", "result": 0.0671, "unit": "wt %"},
      {"measurement": "Iodide Formed, UV", "setting": "[2]; Iopromide 150 mg I/mL, pH 7.4, no SCD (1:0), autoclaved then UV 24 h", "result": 0.148, "unit": "wt %"},
      {"measurement": "Iodide Formed, VIS", "setting": "[2]; Iopromide 150 mg I/mL, pH 7.4, no SCD (1:0), autoclaved then VIS 72 h", "result": 0.0735, "unit": "wt %"},
      {"measurement": "Iodide Formed, UV", "setting": "[2]; Iopromide 240 mg I/mL, pH 7.4, agent:SBE7CD 1:0.05, autoclaved then UV 24 h", "result": 0.113, "unit": "wt %"},
      {"measurement": "Iodide Formed, VIS", "setting": "[2]; Iopromide 240 mg I/mL, pH 7.4, agent:SBE7CD 1:0.05, autoclaved then VIS 72 h", "result": 0.0413, "unit": "wt %"},
      {"measurement": "Iodide Formed, UV", "setting": "[2]; Iopromide 240 mg I/mL, pH 7.4, no SCD (1:0), autoclaved then UV 24 h", "result": 0.129, "unit": "wt %"},
      {"measurement": "Iodide Formed, VIS", "setting": "[2]; Iopromide 240 mg I/mL, pH 7.4, no SCD (1:0), autoclaved then VIS 72 h", "result": 0.0504, "unit": "wt %"},
      {"measurement": "Iodide Formed, UV", "setting": "[2]; Iopromide 300 mg I/mL, pH 7.4, agent:SBE7CD 1:0.05, autoclaved then UV 24 h", "result": 0.102, "unit": "wt %"},
      {"measurement": "Iodide Formed, VIS", "setting": "[2]; Iopromide 300 mg I/mL, pH 7.4, agent:SBE7CD 1:0.05, autoclaved then VIS 72 h", "result": 0.0426, "unit": "wt %"},
      {"measurement": "Iodide Formed, UV", "setting": "[2]; Iopromide 300 mg I/mL, pH 7.4, no SCD (1:0), autoclaved then UV 24 h", "result": 0.110, "unit": "wt %"},
      {"measurement": "Iodide Formed, VIS", "setting": "[2]; Iopromide 300 mg I/mL, pH 7.4, no SCD (1:0), autoclaved then VIS 72 h", "result": 0.0493, "unit": "wt %"},
      {"measurement": "Iodide Formed, UV", "setting": "[2]; Iopromide 370 mg I/mL, pH 7.4, agent:SBE7CD 1:0.05, autoclaved then UV 24 h", "result": 0.0780, "unit": "wt %"},
      {"measurement": "Iodide Formed, VIS", "setting": "[2]; Iopromide 370 mg I/mL, pH 7.4, agent:SBE7CD 1:0.05, autoclaved then VIS 72 h", "result": 0.0351, "unit": "wt %"},
      {"measurement": "Iodide Formed, UV", "setting": "[2]; Iopromide 370 mg I/mL, pH 7.4, no SCD (1:0), autoclaved then UV 24 h", "result": 0.0989, "unit": "wt %"},
      {"measurement": "Iodide Formed, VIS", "setting": "[2]; Iopromide 370 mg I/mL, pH 7.4, no SCD (1:0), autoclaved then VIS 72 h", "result": 0.0392, "unit": "wt %"}
    ]}
  ]
}
